We go through 20 compounds from ChEMBL document CHEMBL5352505, “Targeting MET: Discovery of Small Molecule Inhibitors as Non-Small Cell Lung Cancer Therapy” (J Med Chem, 2023).

What is called IC50 is the concentration that inhibits the measured activity by half. In general, half-life refers to how long it takes for the measured level to halve.

The subject of data set [1] is MKN-45. Kind of data set: Antiproliferative activity against human MKN-45 cells assessed as inhibition of cell growth measured after 72 hrs by Cell Titer blue assay. The class given is functional, cell-based. To be noted: MKN-45, 72 h. Background: Resazurin is reduced to fluorescent resorufin, in cell work by metabolically active cells.
Data set [2] addresses T1, Hepatocyte growth factor receptor (Homo sapiens, UniProt P08581). Nature of the data set: Inhibition of human GST tagged c-Met CD expressed in Sf9 cells using poly(Glu:Tyr) as substrate incubated for 5 mins in presence of ATP by horseradish peroxidase based ELISA method.
The test system of a further data set is CT26. Kind of data set: Antiproliferative activity against CT26 cells assessed as inhibition of cell growth. Format: functional, cell-based. To be noted: Mus musculus.
Data set [3] concerns the target T1, Hepatocyte growth factor receptor. Kind of data set: Inhibition of MET (unknown origin).
Data set [4] concerns MKN-45. Nature of the data set: cells. Conditions: Homo sapiens.
The subject of data set [5] is EBC-1. Kind of data set: cells. Conditions: Homo sapiens.
In data set [6] the test system is EBC-1. Kind of data set: Antiproliferative activity against human EBC-1 cells assessed as inhibition of cell growth measured after 72 hrs by CellTiter-Glo assay. The class given is functional, cell-based. Conditions: EBC-1, 72 h. (In ATP-based viability assays light output follows the ATP content of the culture.)
The subject of data set [7] is MKN-45. Kind of data set: Antiproliferative activity against human MKN-45 cells assessed as inhibition of cell growth measured after 72 hrs by CellTiter-Glo assay. To be noted: MKN-45, 72 h. Format: functional, cell-based.
Data set [8] in a line: Oral bioavailability in mouse. The class given is ADME, organism-based. To be noted: in vivo.
The next data set concerns MHCC97H. Kind of data set: cells. Conditions: Homo sapiens, 72 h.
Data set [9] in a line: Metabolic stability in rat liver microsomes assessed as half life. Format: ADME, Microsome. Background: Liver microsomes are vesicles of endoplasmic reticulum, rich in cytochrome P450 enzymes.
The nature of data set [10]: Metabolic stability in mouse liver microsomes assessed as half life. The class given is ADME, Microsome.
Data set [11] is described as follows: Metabolic stability in human liver microsomes assessed as half life. Format: ADME, Microsome.
The subject of data set [12] is Hs746T. Kind of data set: Antiproliferative activity against human Hs746T cells assessed as inhibition of cell growth measured after 4 days by CellTiter-Glo assay. To be noted: 96 h. Format: functional, cell-based.
The test system of data set [13] is EBC-1. Nature of the data set: Antiproliferative activity against human EBC-1 cells assessed as inhibition of cell growth measured after 3 days by CellTiter-Glo assay. The class given is functional, cell-based. To be noted: EBC-1, 72 h.
Data set [14] concerns Hs746T. Nature of the data set: cells. To be noted: Homo sapiens.
For the next data set, the system named is SNU-5. Nature of the data set: cells. To be noted: Homo sapiens.
The next data set concerns GTL 16 cell line. Kind of data set: Antiproliferative activity against human GTL 16 cell line assessed as inhibition of cell growth. The class given is functional, cell-based.
Another data set concerns NCI-H1703. Kind of data set: Antiproliferative activity against human NCI-H1703 cells assessed as inhibition of cell growth. The class given is functional, cell-based.
The subject of another data set is NCI-H1993. Nature of the data set: Antiproliferative activity against human NCI-H1993 cells assessed as inhibition of cell growth. Format: functional, cell-based.
Data set [15] relates to A549. Kind of data set: Antiproliferative activity against human A549 cells assessed as inhibition of cell growth. Format: functional, cell-based.
The test system of data set [16] is A549. Nature of the data set: Antiproliferative activity against human A549 cells assessed as inhibition of cell growth measured after 48 hrs by MTS assay. The class given is functional, cell-based. Conditions: A549, 48 h.
A further data set deals with NCI-H441. Nature of the data set: Antiproliferative activity against human NCI-H441 cells assessed as inhibition of cell growth measured after 48 hrs by MTS assay. Format: functional, cell-based. To be noted: NCI-H441, 48 h.
Data set [17] deals with MKN-45. Kind of data set: Antiproliferative activity against human MKN-45 cells assessed as inhibition of cell growth measured after 48 hrs by MTS assay. Format: functional, cell-based. To be noted: MKN-45, 48 h.
The next data set deals with NCI-H460. Kind of data set: Antiproliferative activity against human NCI-H460 cells assessed as inhibition of cell growth measured after 48 hrs by MTS assay. The class given is functional, cell-based. To be noted: NCI-H460, 48 h.

SMILES strings stand for the structures.

Take `C[C@@H](Oc1cc(C(=O)Nc2ccc(C(=O)N3CCN(C)CC3)cc2)nnc1N)c1c(Cl)ccc(F)c1Cl`: the IC50 in the data set with MKN-45 [1] is 150 nM.

In the case of `Cc1[nH]c(/C=C2\C(=O)Nc3ccc(S(=O)(=O)N(C)c4cccc(Cl)c4)cc32)c(C)c1C(=O)N1CCN(C)CC1`, in data set [2], the IC50 was 10 nM.

Take `COc1cc2c(Oc3ccc(-c4cnc(Nc5ccc(F)cc5)n(C)c4=O)nc3)ccnc2cc1OCCCN1CCOCC1`: the IC50 in the data set with CT26 is 59 nM.

Turning to `COc1ccc2c(Oc3ccc(NC(=O)c4c(C)n(CC(C)(C)O)n(-c5ccccc5)c4=O)nc3)ccnc2c1`, the IC50 in data set [3] came to 2 nM.

As for `[2H]c1ccc2cc(C(F)(F)c3nnc4ccc(-c5cnn(C)c5)nn34)ccc2n1`, the IC50 in the data set on MKN-45 [4] was 25 nM; in the data set on EBC-1 [5], 17 nM.

In the case of `Fc1ccc(Cl)c(C2(c3n[nH]c4ncc(-c5cnn(C6CCNCC6)c5)cc34)CC2)c1Cl`, the figures for the concentration for half-maximal inhibition (IC50) with EBC-1 [6] and in the data set on MKN-45 [7] were 1190 nM and 670 nM, respectively.

The compound `C[C@H]1CNC(=O)c2c(N)nn3ccc(nc23)NCc2c(ccc(F)c2C#N)O1` came in with an IC50 in the data set with MKN-45 [4] of 297 nM.

For `CCN1Cc2c(ccc(F)c2C#N)O[C@H](C)CNC(=O)c2c(N)nn3ccc1nc23`, the half-inhibitory concentration (IC50) with MKN-45 [4] was found to be 251 nM.

With `[2H]C([2H])[C@]([2H])(c1cccc(-c2ncc(OCC3CCN(C)CC3)cn2)c1)n1nc(-c2cccc(C#N)c2)ccc1=O`, the bioavailability in [8] was 104%. In the data set with MHCC97H, this compound registered a concentration for half-maximal inhibition (IC50) of 37 nM.

As to `C[C@H](c1cccc(-c2ncc(OCC3CCN(C)CC3)cn2)c1)n1cc(-c2cc(C#N)ccn2)cc(F)c1=O`, the half-life came out at 36.5 min in data set [9], 49.1 min in [10] and 62.1 min in [11]. The same compound showed an IC50 with MHCC97H of 8.8 nM.

Consider `[O-][S+](c1c(Cl)ccc(F)c1Cl)c1c[nH]c2ncc(-c3cnn(C4CCNCC4)c3)cc12` (centres undefined), for which the IC50 in the data set with EBC-1 [6] is 1590 nM; in the data set with MKN-45 [7], 1490 nM.

For `CC(C)(O)CN1CCC(COc2cnc(-c3cccc(Cn4c(=O)ccn5c6cc(C#N)ccc6nc45)c3)nc2)CC1`, in data set [8], the bioavailability is 82.3%. Moreover, the IC50 with Hs746T [12] was 1.5 nM; with EBC-1 [13], 4.81 nM.

Consider `CN1CCN(Cc2ccc(-c3cnc(N4CCOC(Cn5nnc6ncc(-c7cnn(C)c7)nc65)C4)nc3)cc2)CC1` (centres undefined), for which the IC50 in the data set on MKN-45 [4] amounted to 3.18 nM; in the data set with Hs746T [14], 2 nM; with EBC-1 [5], 2.22 nM; in the data set with SNU-5, 4.34 nM.

`CCOc1ccn(-c2ccc(F)cc2)c(=O)c1C(=O)Nc1ccc(Oc2ccnc(N)c2Cl)c(F)c1` [BMS-777607]: the IC50 with GTL 16 cell line amounted to 100 nM.

With `CCN1Cc2c(ccc(F)c2C#N)O[C@@H](C)CNC(=O)c2c(N)nn3ccc1nc23` [ELZOVANTINIB], the half-inhibitory concentration (IC50) with MKN-45 [4] worked out at 0.2 nM; in the data set with SNU-5, 0.17 nM.

Regarding `CN1CCN(C2CCN(C(=O)Nc3cc(Oc4ccc(NC(=O)C5(C(=O)Nc6ccc(F)cc6)CC5)c(F)c4)ccn3)CC2)CC1` [GOLVATINIB], the IC50 worked out at 37 nM with MKN-45 [4], 23 nM in the data set with Hs746T [14], 24 nM in the data set on EBC-1 [5] and 6.2 nM in the data set on SNU-5.

As to `Cn1cc(-c2ccc3nnc(C(F)(F)c4ccc5ncccc5c4)n3n2)cn1` [JNJ-38877605], the figures for the IC50 with MKN-45 [4] and with EBC-1 [5] were 18.6 nM and 8.4 nM, respectively.

As for `Cc1ccc(C(=O)Nc2ccc(Oc3cc4cnn(C)c4cc3-c3cn[nH]c3)c(F)c2)c(=O)n1-c1ccc(F)cc1` [MERESTINIB], the IC50 with NCI-H1703 came out at 72.9 nM; in the data set with NCI-H1993, 9.28 nM; with A549 [15], 628 nM.

Consider `Cc1c(C(=O)Nc2ccc(Oc3ccnc4cc(OCC(C)(C)O)ccc34)c(F)c2)c(=O)n(-c2ccccc2)n1C` [NINGETINIB], for which the half-maximal inhibitory concentration (IC50) in the data set on MKN-45 [4] was determined as 7 nM; in the data set with Hs746T [14], 140 nM; with SNU-5, 60 nM.

For `O=C1NC(=O)[C@@H](c2cn3c4c(cccc24)CCC3)[C@@H]1c1c[nH]c2ccccc12` [TIVANTINIB], the IC50 was 590 nM in the data set with A549 [16], 300 nM in the data set with NCI-H441, 580 nM in the data set with MKN-45 [17] and 600 nM in the data set on NCI-H460.
